Our source for the EC50 values is BindingDB's records for doi:10.1016/j.bmcl.2004.12.084 (Novo Nordisk, 2005).

This assay deals with Peroxisome proliferator-activated receptor gamma (Homo sapiens) (UniProt P37231). Briefly: Effective concentration for human peroxisome proliferator-activated receptor gamma.
Turning to `CCO[C@@H](Cc1ccc(OC/C=C(/C)C#Cc2ccccc2)cc1)C(=O)O` [(S)-2-Ethoxy-3-[4-((Z)-3-methyl-5-phenyl-pent-2-en-4-ynyloxy)-phenyl]-propionic acid], the concentration giving a half-maximal response (EC50) was 0.6 µM.

With `CCO[C@@H](Cc1ccc(OCc2ccc(COc3ccc(C[C@H](OCC)C(=O)O)cc3)cc2)cc1)C(=O)O` [(S)-3-(4-{4-[4-((S)-2-Carboxy-2-ethoxy-ethyl)-phenoxymethyl]-benzyloxy}-phenyl)-2-ethoxy-propionic acid], a half-maximal response (EC50) required 14 µM.

Consider `CCO[C@@H](Cc1ccc(O/C=C\Oc2ccc(C[C@@H](OCC)C(=O)O)cc2)cc1)C(=O)O` [(S)-3-(4-{(Z)-2-[4-((R)-2-Carboxy-2-ethoxy-ethyl)-phenoxy]-vinyloxy}-phenyl)-2-ethoxy-propionic acid], for which the EC50 came out at 15 µM.

Usually EC50 stands for the concentration giving half of the maximal effect. A high value points to a need for much substance.
